Values quoted from earlier work in US5718912A, “Muscarine agonists” (Merck & Co., Inc., priority 1996, dated 1998).
Entries after “also recorded” stand apart in the source; their conditions may differ.

Test system: intraocular pressure

In the case of `CC[C@@H]1C(=O)OC[C@@H]1Cc1cncn1C` [pilocarpine], the side effects (pilocarpine therapy) is given as “miosis (decrease of pupil size); also recorded: systemic CNS effects” and the “effect on intraocular pressure” value (topical administration) is given as “lowers intraocular pressure by increasing outflow”.
